# How the values were obtained:
# Format in all cases: cell-based, human
# Sap-1 [1] = test: Chemical cross-linking of Sap-1 constructs in transfected COS7 cells (Western blot); conditions: for cross-linking of ECD-deleted Sap-1 / cross-linking of full-length (FL) Sap-1: anti-HA Western blot, FIG. 5
# Protocol: COS 7 cells were transfected with the indicated construct and left for 24 hours at 37° C. Medium was changed and a solution of BS3 (Pierce) in PBS (2.5 mg/ml) or PBS alone was added, and left for 1 hour at 4° C. The cross-linking reaction was stopped by the addition of PBS that contained 0.15 M Tris pH 7.5 for 15 minutes at 4° C. Cells were finally lysed and the protein content was used for further analysis. The treatment with DSS (Pierce) was the same except that the product was dissolved in DMSO at a concentration of 25 mM (10×). It was then diluted in PBS and cells were incubated with 0.1×DMSO.
# Sap-1 [2] = test: DTT treatment of Sap-1 overexpressing COS7 cells, multimers on non-reducing gel
# Protocol: Cells treated with DTT were serum-starved 8 hours after transfection (with PTP-Sap1 constructs or vector), and then incubated for 30 minutes in serum-free medium with various amount of DTT (Sigma). Before lysis in a buffer containing 150 mM iodoacetamide (“IODA” Sigma), cells were washed with ice cold PBS containing 50 mM iodoacetamide in order to block the free DTT. Samples were run under reducing and non-reducing conditions, with or without β-mercaptoethanol in the sample buffer, respectively.
# WiDr cells = test: Streptolysin transfection of antisense ODN and BrdU proliferation assay; conditions: BrdU, streptolysin-O, ODN 1 mM final
compound,measurement,setting,value
"O=C(CCCCCCC(=O)ON1C(=O)CCC1=O)ON1C(=O)CCC1=O [DSS, Di-Succinimidyl-Suberate]",cross-linking of membrane-associated ECD-deleted Sap-1 lacking transmembrane domain (lck myristoylation peptide),Sap-1 [1]; FIG. 5B right panel,could not be cross-linked
same,cross-linking of ECD-deleted Sap-1,Sap-1 [1],but not ECD-deleted Sap-1
same,cross-linking of full-length (FL) Sap-1,Sap-1 [1],able to cross-link
"O[C@H](CS)[C@H](O)CS (racemic) [DTT, Dithiothreitol]",reversibility of multimer disruption,"Sap-1 [2]; 30 minutes at 50 mM DTT, washout, 15 minutes recovery without DTT",fully restored formation of the multimers
same,multimerized Sap-1 on non-reducing gel,"Sap-1 [2]; cells incubated 30 minutes in DTT, FIG. 6B",dose-dependent decrease
AS2: antisense ODN to PTP-SAP1 mRNA: TGACCCGGGTCCAAGGCCAT (antisense TGACCCGGGTCCAAGGCCAT; chemistry not given here),reduction of the proliferation,WiDr cells,20%
"O=C(CCCCCCC(=O)ON1C(=O)CC(S(=O)(=O)O)C1=O)ON1C(=O)CC(S(=O)(=O)O)C1=O (stereo not drawn) [BS3, Bis-Sulfosuccinimidyl-Suberate]",cross-linking of ECD-deleted Sap-1,Sap-1 [1],no effect
same,cross-linking of full-length (FL) Sap-1,Sap-1 [1],induces the formation of a complex with high MW
same,cross-linking of FLEX-Cterm Sap-1 construct,"Sap-1 [1]; anti-Myc Western blot, FIG. 8A",efficiently cross-linked
